Assay results published in PMC1805503 (Beilstein Journal of Organic Chemistry, 2007).

Assays:
[1] = tested on: KOR; set-up: method as in PMID 14718611; details: [3H]bremazocine as radiolabeled ligand; cited from earlier work
[2] = biological target: T1, human KOR (Homo sapiens, UniProt P41145); experiment: biochemical; details: read-out: Emax ± SEM
T1 construct: expressed in transfected cells; host or cells: CHO cells expressing hKOR (membranes), according to the assay names of the earlier reading
T1 sequence (P41145 whole entry): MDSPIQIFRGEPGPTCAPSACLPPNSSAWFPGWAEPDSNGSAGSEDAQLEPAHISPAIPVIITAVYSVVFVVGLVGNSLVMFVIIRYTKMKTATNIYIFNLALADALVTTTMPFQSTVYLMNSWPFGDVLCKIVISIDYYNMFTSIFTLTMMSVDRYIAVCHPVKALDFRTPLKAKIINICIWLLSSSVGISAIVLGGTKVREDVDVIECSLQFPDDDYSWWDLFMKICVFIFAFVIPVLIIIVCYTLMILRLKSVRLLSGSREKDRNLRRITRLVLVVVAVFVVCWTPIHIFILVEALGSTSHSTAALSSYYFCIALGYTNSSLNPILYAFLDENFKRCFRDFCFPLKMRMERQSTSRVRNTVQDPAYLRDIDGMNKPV

| SMILES | activity at the KOR (in words), early report [1] | Emax [2] [%] |
| --- | --- | --- |
| COC(=O)[C@@H]1C[C@H](O)C(=O)[C@H]2[C@@]1(C)CC[C@H]1C(=O)O[C@H](c3ccoc3)C[C@]21C [Compound 2a, salvinorin B] | inactive | – |
| COC(=O)C1CC(O)C(=O)C2C1(C)CCC1C(=O)OC(c3ccoc3)CC12C (stereo not drawn) [Compound 2b, 8-epi-salvinorin B] | – | 90 ± 2 |
